Experimental data reported in PubChem BioAssay AID330 (DTP/NCI, 2004).
Values joined by “and” are separate entries in the source; they are usually repeats but may differ in a detail not shown here. Equal values may be shown once. Inconclusive results and toxic doses are left out. Rule for the calls: active = survival T/C of 150% or more; inactive = T/C below 125% in these data.

Tested on: P388 leukemia ip, CD2F1 mice, survival T/C
Assay: NCI In Vivo Anticancer Drug Screen. Data for tumor model P388 Leukemia (intraperitoneal) in CD2F1 (CDF1) mice
Settings: endpoint: median survival time, higher = longer survival
Method in brief: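 Mice carrying the transplanted tumor received test compound or vehicle. Survival was recorded in each group, and the value is the treated-group measurement divided by that of the vehicle-treated control group.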

[1] = dose: 50.0 mg/kg/injection, schedule: Q01DX005 (ip), vehicle: Klucel (hydroxypropylcellulose) (HPC)
[2] = dose: 100.0 mg/kg/injection, schedule: Q01DX005 (ip), vehicle: Klucel (hydroxypropylcellulose) (HPC)
[3] = dose: 200.0 mg/kg/injection, schedule: Q01DX005 (ip), vehicle: Klucel (hydroxypropylcellulose) (HPC)
[4] = dose: 12.5 mg/kg/injection, schedule: Q01DX009 (ip), vehicle: saline with Tween-80
[5] = dose: 25.0 mg/kg/injection, schedule: Q01DX009 (ip), vehicle: saline with Tween-80
[6] = dose: 50.0 mg/kg/injection, schedule: Q01DX009 (ip), vehicle: saline with Tween-80
[7] = dose: 100.0 mg/kg/injection, schedule: Q01DX009 (ip), vehicle: saline with Tween-80
[8] = dose: 50.0 mg/kg/injection, schedule: Q01DX005 (ip), vehicle: saline with Tween-80
[9] = dose: 100.0 mg/kg/injection, schedule: Q01DX005 (ip), vehicle: saline with Tween-80
[10] = dose: 200.0 mg/kg/injection, schedule: Q01DX005 (ip), vehicle: saline with Tween-80
[11] = dose: 100.0 mg/kg/injection, schedule: Q04DX003 (ip), vehicle: saline with Tween-80
[12] = dose: 200.0 mg/kg/injection, schedule: Q04DX003 (ip), vehicle: saline with Tween-80
[13] = dose: 200.0 mg/kg/injection, schedule: Q01DX009 (ip), vehicle: saline with Tween-80
[14] = dose: 400.0 mg/kg/injection, schedule: Q01DX009 (ip), vehicle: saline with Tween-80

Measured: T/C

CC1=C(CCC(=O)O)c2cc3nc(cc4[nH]c(cc5[nH]c(cc1n2)c(C)c5C1CC1C(=O)O)c(C)c4C1CC1C(=O)O)C(C)=C3CCC(=O)O (configuration not stated)
inactive: [1] 106 % of control | [2] 101 % of control | [3] 95 % of control

O=C(O)c1nccc2ccccc12
inactive: [4] 103 % of control | [5] 103 % of control | [6] 105 % of control | [7] 106 % of control

CCOC(=O)/C=C/C(=O)O (tested in a mixture with another compound)
inactive: dose: 100.0 mg/kg/injection, schedule: Q04DX003 (ip), vehicle: saline 100 % of control | dose: 200.0 mg/kg/injection, schedule: Q04DX003 (ip), vehicle: saline 98 % of control | dose: 400.0 mg/kg/injection, schedule: Q04DX003 (ip), vehicle: saline 96 % of control

O/N=C/c1cccc(O)c1O
inactive: [8] 96 % of control | [9] 107 % of control

C/C=C/C(=O)Oc1ccccc1/C=C/C(=O)CCCCCC
inactive: [8] 92 % of control | [9] 98 % of control | [10] 100 % of control

COc1ccc2c(c1OC)C(O)N1CCc3cc4c(cc3C1=C2C(=O)c1ccccc1)OCO4 (configuration not stated)
inactive: dose: 12.5 mg/kg/injection, schedule: Q01DX005 (ip), vehicle: Klucel (hydroxypropylcellulose) (HPC) 100 % of control and 106 % of control | dose: 25.0 mg/kg/injection, schedule: Q01DX005 (ip), vehicle: Klucel (hydroxypropylcellulose) (HPC) 100 % of control and 94 % of control | [1] 103 % of control (2×) and 123 % of control | [2] 111 % of control

CC1(C)CC2(C)OC2C2(C1)N=NC(=O)O2 (configuration not stated)
inactive: dose: 50.0 mg/kg/injection, schedule: Q01DX009 (ip), vehicle: saline + alcohol 90 % of control | [6] 89 % of control | dose: 100.0 mg/kg/injection, schedule: Q01DX009 (ip), vehicle: saline + alcohol 100 % of control | [7] 87 % of control | dose: 200.0 mg/kg/injection, schedule: Q01DX009 (ip), vehicle: saline + alcohol 93 % of control | dose: 400.0 mg/kg/injection, schedule: Q01DX009 (ip), vehicle: saline + alcohol 108 % of control

CC(C)N(c1nccc(F)n1)C(C)C
inactive: dose: 25.0 mg/kg/injection, schedule: Q01DX005 (ip), vehicle: saline with Tween-80 103 % of control | [8] 101 % of control | [9] 103 % of control | [10] 104 % of control

O=C1C(c2nc3ccccc3[nH]2)=C(O)c2ccccc21
inactive: dose: 60.0 mg/kg/injection, schedule: Q01DX005 (ip), vehicle: Klucel (hydroxypropylcellulose) (HPC) 87 % of control | dose: 120.0 mg/kg/injection, schedule: Q01DX005 (ip), vehicle: Klucel (hydroxypropylcellulose) (HPC) 87 % of control | dose: 240.0 mg/kg/injection, schedule: Q01DX005 (ip), vehicle: Klucel (hydroxypropylcellulose) (HPC) 87 % of control

C[n+]1cc2ccccc2c2ccccc21
inactive: dose: 3.13 mg/kg/injection, schedule: Q01DX009 (ip), vehicle: saline 108 % of control | dose: 6.25 mg/kg/injection, schedule: Q01DX009 (ip), vehicle: saline 117 % of control | dose: 12.5 mg/kg/injection, schedule: Q01DX005 (ip), vehicle: saline 100 % of control | dose: 12.5 mg/kg/injection, schedule: Q01DX009 (ip), vehicle: saline 120 % of control | dose: 25.0 mg/kg/injection, schedule: Q01DX005 (ip), vehicle: saline 110 % of control | dose: 25.0 mg/kg/injection, schedule: Q01DX009 (ip), vehicle: water 122 % of control | dose: 50.0 mg/kg/injection, schedule: Q01DX005 (ip), vehicle: saline 101 % of control | dose: 50.0 mg/kg/injection, schedule: Q01DX009 (ip), vehicle: water 113 % of control

O=C(NO)/C(CC(=O)c1ccccc1O)=N\O
inactive: dose: 60.0 mg/kg/injection, schedule: Q01DX005 (ip), vehicle: saline 100 % of control | dose: 120.0 mg/kg/injection, schedule: Q01DX005 (ip), vehicle: saline 111 % of control | dose: 240.0 mg/kg/injection, schedule: Q01DX005 (ip), vehicle: saline 103 % of control

CC(=O)C(=O)c1ccc(O)cc1O
inactive: dose: 10.0 mg/kg/injection, schedule: Q01DX009 (ip), vehicle: saline with Tween-80 96 % of control | dose: 20.0 mg/kg/injection, schedule: Q01DX009 (ip), vehicle: saline with Tween-80 103 % of control | dose: 40.0 mg/kg/injection, schedule: Q01DX009 (ip), vehicle: saline with Tween-80 107 % of control

CCOc1ccn(CC(=O)c2ccc(Cl)s2)c(=O)n1
inactive: [11] 95 % of control | [12] 90 % of control | dose: 400.0 mg/kg/injection, schedule: Q04DX003 (ip), vehicle: saline with Tween-80 104 % of control

COC(=O)CCN(CCC(=O)OC)Cc1ccccc1
inactive: dose: 50.0 mg/kg/injection, schedule: Q04DX003 (ip), vehicle: saline with Tween-80 101 % of control | [11] 100 % of control | [12] 100 % of control

CN1C(=O)c2ccc3c4ccc5c6c(ccc(c7ccc(c2c37)C1=O)c64)C(=O)N(c1ccccc1)C5=O
inactive: [1] 87 % of control | [2] 86 % of control | [3] 86 % of control

Oc1cc2c(cc1C(c1ccc(F)cc1)N1CCCCC1)OCO2 (configuration not stated)
inactive: dose: 60.0 mg/kg/injection, schedule: Q01DX005 (ip), vehicle: saline with Tween-80 111 % of control | dose: 120.0 mg/kg/injection, schedule: Q01DX005 (ip), vehicle: saline with Tween-80 116 % of control | dose: 240.0 mg/kg/injection, schedule: Q01DX005 (ip), vehicle: saline with Tween-80 115 % of control

COc1ccc(C(=O)O)c(N)c1
inactive: [7] 90 % of control | [13] 95 % of control | [14] 109 % of control

O=C(C[n+]1ccccc1)N/N=C/c1cccc([N+](=O)[O-])c1
inactive: [4] 102 % of control | [5] 99 % of control | [6] 103 % of control

CCC(=O)N(C)C(C)C(=O)OC1CC(=O)N(C)c2cc(cc(OC)c2Cl)CC(C)CCCC(OC)C2(O)CC(OC(=O)N2)C(C)C2OC12C (configuration not stated)
inactive: dose: 1.56 micrograms/kg/injection, schedule: Q01DX009 (ip), vehicle: saline + alcohol 106 % of control | dose: 3.12 micrograms/kg/injection, schedule: Q01DX009 (ip), vehicle: saline + alcohol 105 % of control | dose: 6.25 micrograms/kg/injection, schedule: Q01DX009 (ip), vehicle: saline + alcohol 110 % of control | dose: 12.5 micrograms/kg/injection, schedule: Q01DX009 (ip), vehicle: saline + alcohol 108 % of control | dose: 50.0 micrograms/kg/injection, schedule: Q01DX009 (ip), vehicle: saline + alcohol 105 % of control | dose: 100.0 micrograms/kg/injection, schedule: Q01DX009 (ip), vehicle: saline + alcohol 109 % of control | dose: 200.0 micrograms/kg/injection, schedule: Q01DX009 (ip), vehicle: saline + alcohol 102 % of control | dose: 400.0 micrograms/kg/injection, schedule: Q01DX009 (ip), vehicle: saline + alcohol 114 % of control

C1CCN(c2c3c(nc4nnnn24)CCC3)CC1
inactive: dose: 50.0 mg/kg/injection, schedule: Q01DX009 (ip), vehicle: saline 96 % of control | dose: 100.0 mg/kg/injection, schedule: Q01DX009 (ip), vehicle: saline 87 % of control | dose: 200.0 mg/kg/injection, schedule: Q01DX009 (ip), vehicle: saline 90 % of control

CCOC(=O)Cc1csc(=S)n1-c1ccccc1
inactive: [8] 102 % of control | [9] 102 % of control | [10] 90 % of control

CCOC(=O)C1=C(c2ccccc2)OC(N)=C(C#N)C1c1ccccc1 (configuration not stated)
inactive: [1] 107 % of control | [2] 103 % of control | [3] 101 % of control

CN(C)c1ccc(CN2CCCN(Cc3ccc(N(C)C)cc3)C2c2ccncc2)cc1
inactive: [7] 100 % of control | [13] 100 % of control | [14] 100 % of control

Cc1cc(C)n(C(N)=NC(=O)c2ccccc2)n1
inactive: dose: 50.0 mg/kg/injection, schedule: Q01DX009 (ip), vehicle: Klucel (hydroxypropylcellulose) (HPC) 104 % of control and 106 % of control | dose: 100.0 mg/kg/injection, schedule: Q01DX009 (ip), vehicle: Klucel (hydroxypropylcellulose) (HPC) 100 % of control | dose: 200.0 mg/kg/injection, schedule: Q01DX009 (ip), vehicle: Klucel (hydroxypropylcellulose) (HPC) 109 % of control
